“Also recorded” adds a separate entry of the source.
Columns and labels:
[1] = Solubility test in C12-C15 alkyl benzoate oil (Finsolv TN); type: physicochemical; set-up: key to Solubility in Finsolv TN, dissolved amount (m/m %) 1% / Solubility in Finsolv TN, dissolved amount (m/m %) 5% / Solubility in Finsolv TN, dissolved amount (m/m %) 20% / Solubility in Finsolv TN, dissolved amount (m/m %) 50% / Solubility in Finsolv TN, dissolved amount (m/m %) 80% / Solubility in Finsolv TN, dissolved amount (m/m %) 90%: +=well-soluble; −=not soluble
Method: The aminobutadiene compounds according to the present invention have an optimised solubility for cosmetic oils. […] In Table 3, the solubility of compounds 4, 12 and 13 is shown at various concentrations (+=well-soluble; -=not soluble). The compounds were dissolved at 80° C. while stirring for 1 hour and cooled down to room temperature. After 24 hours the solutions were inspected for any precipitates or crystals.

[2] = Spectral analysis: UV extinction value E at 375 nm; type: physicochemical; settings: 1% solution in DMSO at 375 nm
Text: The aminobutadiene compounds according to the present invention have a typical extinction value E of about 1100 to about 1500 AU/cm of a 1% solution in dimethylsulfoxide (DMSO, Sigma Aldrich ACS spectrophotometric grade) at 375 nm, which is typically the wavelength of the absorption maximum of such compounds. The exact value of E depends on the relative contribution of the core and the R-groups to the molecular weight, while the exact wavelength of the absorption maximum depends on the type of substituents. Spectra were obtained on a HP 8452A diode array spectrophotometer against a DMSO blanc.

[3] = Heat stability test (UV-absorption left after storage at 50° C.); type: physicochemical; settings: for Heat stability: UV-absorption left after 5 days: 5 days at 50° C. in the dark; for Heat stability: UV-absorption left after 5 days / Heat stability: UV-absorption left after 50 days / Heat stability: UV-absorption left after 100 days: 1.5% in C12-C15 alkyl benzoate oil (compound 12: 5% in water), 375 nm versus sample stored at room temperature; for Heat stability: UV-absorption left after 50 days: 50 days at 50° C. in the dark; for Heat stability: UV-absorption left after 100 days: 100 days at 50° C. in the dark; for heat stability, in words: in C12-C15 alkylbenzoate oils
Method: Hereto, 1.5% solutions were prepared of compounds 4-11 and 13 in C12-C15 alkyl benzoate oil. […] The solutions were stored in closed vessels at 50° C. in the dark. After 5, 50 and 100 days, the UV-absorption of a diluted sample was measured at 375 nm comparative to a corresponding sample stored at room temperature. The UV-absorption left after each time span is shown in Table 4 indicated by + and − signs. ++ means >95% left, +− implies between 50-95% left, − indicates <50% left.

human skin = test: Skin penetration test in diffusion cell; type: in vitro ADME; settings: human skin, diffusion cell; for penetration through the skin (UV-analysis of collected receptor fluids), in words: 20 hrs
Method: The skin-penetration was evaluated based on the same method described on page 21 of WO2006/009451. FIG. 2 is a drawing of the skin penetration test equipment, wherein (1) indicates the position of the test sample (donor compound), (2) an ⅛″ OD× 1/32″ wall tubing, (3) the receptor input, (4) the receptor compartment and (5) the compound and receptor output that is subjected to analysis.
A compound 3 donor solution was prepared by dissolving 30 mg of compound 3 in 4 ml EtOH and 7 ml phosphate buffer (PBS) at pH 7.4. Compound 4, 6, 7, 8 and 9 donor solutions were prepared by dispersing 80 mg of these compounds in olive oil.
For each compound 4 pieces of human skin (Ø ca 3 cm, mostly epidermis) were applied on a dialysis membrane and mounted into the diffusion cell shown in the FIG. 2. The figure is a schematic drawing of the diffusion cell, wherein is indicated 1: donor compound, 2: receptor compartment, 3: receptor input, 4: compound and receptor output for analysis, 5: ⅛″ OD× 1/32″ wall tubing. The cells were mounted on a temperature controlling and stirring device. The temperature was kept at 37°. The receptor fluid was a PBS buffer. The receptor compartment was stirred magnetically. 400 μl of the donor solution was applied. The receptor fluid flowing at a speed of 1 ml/hr was collected into glass tubes (1 tube/2 hrs). After 20 hrs the penetration experiment was terminated.
Furthermore the skin parts were extracted with DMSO to dissolve any UV-absorber in the epidermis. The extracts were analysed by UV.

Solubility in Finsolv TN, dissolved amount (m/m %) 1% ([1]; 1% m/m, dissolved at 80° C. for 1 hour, cooled to room temperature, inspected after 24 hours) | Solubility in Finsolv TN, dissolved amount (m/m %) 5% ([1]; 5% m/m, dissolved at 80° C. for 1 hour, cooled to room temperature, inspected after 24 hours) | Solubility in Finsolv TN, dissolved amount (m/m %) 20% ([1]; 20% m/m, dissolved at 80° C. for 1 hour, cooled to room temperature, inspected after 24 hours) | Solubility in Finsolv TN, dissolved amount (m/m %) 50% ([1]; 50% m/m, dissolved at 80° C. for 1 hour, cooled to room temperature, inspected after 24 hours) | Solubility in Finsolv TN, dissolved amount (m/m %) 80% ([1]; 80% m/m, dissolved at 80° C. for 1 hour, cooled to room temperature, inspected after 24 hours) | Solubility in Finsolv TN, dissolved amount (m/m %) 90% ([1]; 90% m/m, dissolved at 80° C. for 1 hour, cooled to room temperature, inspected after 24 hours) | solubility in C12-C15 alkyl benzoate oil (Finsolv TN), in words ([1]; all concentrations) | extinction E [2] [au/cm] | SMILES | Heat stability: UV-absorption left after 5 days [3] | Heat stability: UV-absorption left after 50 days [3] | Heat stability: UV-absorption left after 100 days [3] | heat stability, in words [3] | penetration into or through the skin (UV analysis of DMSO skin extracts), in words (human skin) | penetration through the skin (UV-analysis of collected receptor fluids), in words (human skin)
+ | + | + | + | + | + | very well soluble at all concentrations | 1400 | CCCCCCCCOC(=O)C(=CC=CN(CCCCCCN(C=CC=C(C(=O)OCCCCCCCC)S(=O)(=O)c1ccccc1)Cc1ccccc1)CCCCCCN(C=CC=C(C(=O)OCCCCCCCC)S(=O)(=O)c1ccccc1)Cc1ccccc1)S(=O)(=O)c1ccccc1 [Compound 4] | ++ (++ means >95% left) | ++ (++ means >95% left) | ++ (++ means >95% left) | very heat stable | do not penetrate into or through the skin | no penetration
 |  |  |  |  |  |  |  | CCCCCCCCOC(=O)C(=CC=CN(CCN(C=CC=C(C(=O)OCCCCCCCC)S(=O)(=O)c1ccccc1)Cc1ccccc1)CCN(C=CC=C(C(=O)OCCCCCCCC)S(=O)(=O)c1ccccc1)Cc1ccccc1)S(=O)(=O)c1ccccc1 [Compound 9] | ++ (++ means >95% left) | ++ (++ means >95% left) | ++ (++ means >95% left) | very heat stable; also recorded: good heat stability | do not penetrate into or through the skin | no penetration

— US8318980B2, “UV absorbing compounds” (Fujifilm Manufacturing Europe B.V., priority 2007, dated 2012)
